The results in this text go back to ChEMBL document CHEMBL5154826, “Discovery of the Clinical Candidate MAK683: An EED-Directed, Allosteric, and Selective PRC2 Inhibitor for the Treatment of Advanced Malignancies” (J Med Chem, 2022).

≈ marks a conversion by molar mass, not a printed value. A value given as a limit tells only on which side of the number the result lay.

Data set [1] is described as follows: Antitumor activity against human Karpas-422 cells xenografted Athymic BALB/c nude mouse assessed as inhibition of tumor growth at 300 mg/kg, po for 23 days. Type of data set: functional. On the set-up: scale not given: the % may be the effect or the level left. As to conditions: time 23 day. A general note: A xenograft is tissue or cells of one species grown in another, often human tumour cells in immunodeficient mice.

The next data set has as its system KARPAS-422. Kind of data set: Antiproliferative activity against human KARPAS-422 cells expressing EZH2 mutant assessed as inhibition of cell growth after 14 days by beckman coulter counting method. Type of data set: functional. As to conditions: time 14 day.
Data set [2] is described as follows: Metabolic stability in human microsomes assessed as intrinsic clearance. Type of data set: ADME, Microsome. As to conditions: read-out: CLH.
Data set [3] addresses 3',5'-cyclic-AMP phosphodiesterase 4D (Homo sapiens, UniProt Q08499). Kind of data set: Inhibition of human Phosphodiesterase 4D.
Data set [4] can be described thus: Plasma protein binding in human assessed as unbound fraction at 1 uM measured after 6 hrs LC-MS/MS analysis. Type of data set: ADME, cell-free.
The target in the next data set is Cytochrome P450 3A4 (Homo sapiens, UniProt P08684). Description: Inhibition of CYP3A4 in human liver microsomes using midazolam as substrate incubated for 10 mins by LC-MS/MS analysis. The format is ADME, Microsome.
Data set [5] can be described thus: Plasma protein binding in rat at 1 uM measured after 6 hrs LC-MS/MS analysis. Type of data set: ADME, cell-free. The note with it: read-out: PPB (converted).
The nature of data set [6]: Intrinsic clearance in human hepatocytes measured per 10^6 cells. The format is ADME, cell-based, Hepatocyte. As to conditions: read-out: CLH.
A short description of data set [7]: Ratio of drug level in rat blood to plasma. Type of data set: ADME, cell-free.
The nature of data set [8]: In vivo inhibition of PRC2 in PBMC collected from human Karpas-422 cells xenografted Athymic NTac:NIH-Whn nude rat assessed as reduction in H3K27me3 level at 3 mg/kg, po, qd for 57 days measured after 4 hrs of last dose by FACS method. The format is functional. Also on record: scale not given: the % may be the effect or the level left. The note with it: time 57 day.
Data set [9] in a line: High throughput solubility of the compound at pH 7 after 16 to 24 hrs by MS/MS analysis. The format is physicochemical. The note with it: buffer, time 16-24 hrs, read-out: solubility.

3',5'-cyclic-AMP phosphodiesterase 4D, sequence (Q08499 whole entry): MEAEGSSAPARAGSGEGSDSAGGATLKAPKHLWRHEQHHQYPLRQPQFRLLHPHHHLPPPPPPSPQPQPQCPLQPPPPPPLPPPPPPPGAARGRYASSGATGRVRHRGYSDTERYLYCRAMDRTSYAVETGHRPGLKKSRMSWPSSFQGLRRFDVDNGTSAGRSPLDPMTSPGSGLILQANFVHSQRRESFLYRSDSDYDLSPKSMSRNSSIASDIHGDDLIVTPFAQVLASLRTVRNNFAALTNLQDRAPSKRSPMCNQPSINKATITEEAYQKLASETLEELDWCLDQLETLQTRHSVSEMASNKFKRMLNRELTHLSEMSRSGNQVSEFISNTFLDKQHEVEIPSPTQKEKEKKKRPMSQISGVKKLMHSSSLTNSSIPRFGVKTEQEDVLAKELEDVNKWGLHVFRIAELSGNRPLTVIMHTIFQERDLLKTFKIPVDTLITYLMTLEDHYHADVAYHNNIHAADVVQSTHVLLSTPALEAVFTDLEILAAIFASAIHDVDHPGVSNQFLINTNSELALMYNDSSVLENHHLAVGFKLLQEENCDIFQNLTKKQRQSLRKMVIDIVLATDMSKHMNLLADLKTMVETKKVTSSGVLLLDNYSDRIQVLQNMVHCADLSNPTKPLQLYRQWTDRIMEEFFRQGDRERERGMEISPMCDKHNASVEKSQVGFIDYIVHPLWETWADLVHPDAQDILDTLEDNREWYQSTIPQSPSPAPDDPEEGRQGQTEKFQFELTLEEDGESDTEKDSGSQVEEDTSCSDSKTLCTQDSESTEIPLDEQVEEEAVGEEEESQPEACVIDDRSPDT
Cytochrome P450 3A4, sequence (P08684 whole entry): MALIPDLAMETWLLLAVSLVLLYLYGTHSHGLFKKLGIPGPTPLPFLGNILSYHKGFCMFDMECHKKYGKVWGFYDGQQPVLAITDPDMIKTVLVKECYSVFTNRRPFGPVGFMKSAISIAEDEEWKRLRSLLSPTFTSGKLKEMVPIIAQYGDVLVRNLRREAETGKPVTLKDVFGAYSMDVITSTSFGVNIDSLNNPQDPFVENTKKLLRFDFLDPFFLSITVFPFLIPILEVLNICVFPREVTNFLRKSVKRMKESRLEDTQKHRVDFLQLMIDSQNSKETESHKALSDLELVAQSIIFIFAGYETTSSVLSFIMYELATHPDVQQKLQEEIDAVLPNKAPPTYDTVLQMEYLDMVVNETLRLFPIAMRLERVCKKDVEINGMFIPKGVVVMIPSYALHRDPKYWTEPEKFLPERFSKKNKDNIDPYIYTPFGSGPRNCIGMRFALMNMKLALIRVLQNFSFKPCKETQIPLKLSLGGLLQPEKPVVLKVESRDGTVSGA

Broadly, the GI50 is the concentration at which growth is held to half of that of the control. The term IC50 denotes the point on the concentration scale where inhibition reaches its midpoint. Broadly, the solubility is how much of the substance goes into solution per volume. Take `Cc1ncccc1-c1cnc(NCc2c(F)ccc3c2CCO3)n2cnnc12`: the figures for the Activity in [1] and in data set [8] were 100% and 80%, respectively. The 50% growth inhibitory concentration (GI50) in the data set with KARPAS-422 (Homo sapiens, KARPAS-422, 336 h) worked out at 4 µM. Besides, the GI90 with KARPAS-422 came out at 8 µM. In data set [2], the microsomal CLint came to 33 µL/min/mg. The IC50 in [3] was 6.4 µM; against Cytochrome P450 3A4, above 18 µM. The results for the fraction unbound at 6 h, 1 µM in data set [4] and in data set [5] were 0.08 and 0.13, respectively. Moreover, the hepatocyte CLint in [6] turned out to be 4.4 µL/min/1e6 cells. Further, the blood plasma ratio in data set [7] was determined as 0.98. Also, the solubility in data set [9] amounted to 19 µM (≈ 7.15 µg/mL).
